Counter-ions that a name gives are not always drawn.

This assay has as its system YAP-TEAD interaction. The experiment in a line: SK-HEP-1 reporter assay (8xTEAD responsive elements driving NanoLuc luciferase). The class given is cell-based. The gist of the method:
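Reporter read-out: NanoLuc luminescence from 8×TEAD elements stably integrated in SK-HEP-1 cells, after 24 h compound exposure at 37° C. Ten concentrations tested in duplicate, top 30 μM final, 0.3% DMSO; IC50 from curve.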

[1] abbreviates: Homo sapiens, SK-HEP1, SK-HEP-1 reporter assay, class symbols.
Where [2] appears, read: Homo sapiens, SK-HEP1, SK-HEP-1 reporter assay, n.d. = value not detectable below threshold given in parentheses, ND = not determinable within the entire range.

The IC50 is the concentration at which inhibition is half-maximal. In the case of `Cn1cc2c3cc(C(=O)/N=S4/CC(N)CO4)ccc3n(-c3ccc(C(F)(F)F)cc3)c2n1` (stereo not shown) [Example C269, N-(4-amino-1,2lambda4-oxathiolan-2-ylidene)-2-methyl-8-[4-(trifluoromethyl)phenyl]-2H,8H-pyrazolo[3,4-b]indole-5-carboxamide formate], under setting [1], the IC50 was in the range of 100 to 10000 nM.

Under setting [1], `Cn1cc2c3cc(C(=O)N[C@@H](CO)c4ccccn4)cnc3n(-c3ccc(C(F)(F)F)cc3)c2n1` [Example C228, N-[(1R)-2-hydroxy-1-(pyridin-2-yl)ethyl]-4-methyl-7-[4-(trifluoromethyl)phenyl]-4,5,7,9-tetraazatricyclo[6.4.0.0^2,6]dodeca-1(8),2,5,9,11-pentaene-11-carboxamide] yielded an IC50 of 10 to 100 nM. In the case of `C[C@H](CO)NC(=O)c1ccc2c(c1)c1cn(C)nc1n2C1CC2(C1)CC(F)(F)C2` [Example C207, 8-{6,6-difluorospiro[3.3]heptan-2-yl}-N-[(2R)-1-hydroxypropan-2-yl]-2-methyl-2H,8H-pyrazolo[3,4-b]indole-5-carboxamide], the IC50 under setting [1] fell in the range of 100 to 10000 nM. With `Cn1cc2c3cc(NC(=O)COC4CNC4)ccc3n(-c3ccc(C(F)(F)F)cc3)c2n1` [Example C243, 2-(azetidin-3-yloxy)-N-{2-methyl-8-[4-(trifluoromethyl)phenyl]-2H,8H-pyrazolo[3,4-b]indol-5-yl}acetamide formate], the IC50 under setting [1] lay in the range of 100 to 10000 nM.

Take `Cn1cnc2c1c1cc(CO)ccc1n2-c1ccc(C(F)(F)F)cc1` [Example C132, {1-methyl-4-[4-(trifluoromethyl)phenyl]-1H,4H-imidazo[4,5-b]indol-7-yl}methanol]: the IC50 under setting [1] was 100 to 10000 nM. Take `C[C@H](CO)NC(=O)c1ccc2c(c1)c1cn(C)nc1n2-c1ccc(F)cc1` [Example C155, 8-(4-fluorophenyl)-N-[(2R)-1-hydroxypropan-2-yl]-2-methyl-2H,8H-pyrazolo[3,4-b]indole-5-carboxamide]: the IC50 under setting [1] is 100 to 10000 nM.

Take `C=Cc1ccc2c(c1)c1c(ncn1C)n2-c1ccc(C(F)(F)F)cc1` [Example C179, 7-ethenyl-1-methyl-4-[4-(trifluoromethyl)phenyl]-1H,4H-imidazo [4,5-b]indole]: the IC50 under setting [1] was 100 to 10000 nM. Regarding `C[C@H](NC(=O)c1ccc2c(c1)c1cn(C)nc1n2-c1ccc(C(F)(F)F)cc1)c1ccc(Cl)nc1` [Example C265, N-[(1S)-1-(6-chloropyridin-3-yl)ethyl]-2-methyl-8-[4-(trifluoromethyl)phenyl]-2H,8H-pyrazolo[3,4-b]indole-5-carboxamide], under setting [1], the IC50 lay in the range of 10 to 100 nM. As to `Cn1cc2c3cc(C(=O)N=S4(=O)CCC5(CC4)CC(N)CCO5)ccc3n(-c3ccc(C(F)(F)F)cc3)c2n1` (stereo not shown) [Example C143, N-{4-amino-9-oxo-1-oxa-9lambda6-thiaspiro[5.5]undecan-9-ylidene}-2-methyl-8-[4-(trifluoromethyl)phenyl]-2H,8H-pyrazolo[3,4-b]indole-5-carboxamide], the IC50 under setting [2] was greater than 3200 nM.

The molecule `COCCC(CO)NC(=O)c1ccc2c(c1)c1cn(C)nc1n2-c1ccc(C(F)(F)F)cc1` (single isomer, unassigned) [Example C246] returned a concentration for half-maximal inhibition (IC50) (SK-HEP-1 reporter assay, class symbols) of 100 to 10000 nM. For the molecule `Cn1cc2c3nc(C(=O)N=S(C)(=O)CCO)ccc3n(-c3ccc(C(F)(F)F)cc3)c2n1` (stereo not shown) [Example C109, N-[(2-hydroxyethyl)(methyl)oxo-λ^6-sulfanylidene]-4-methyl-7-[4-(trifluoromethyl)phenyl]-4,5,7,12-tetraazatricyclo [6.4.0.0^2,6]dodeca-1(8),2,5,9,11-pentaene-11-carboxamide], under setting [2], the 50% inhibitory concentration (IC50) is greater than 30000 nM. As to `Cn1nc2c3cc(C(=O)O)ccc3n(-c3ccc(C(F)(F)F)cc3F)c2n1` [Example C258, 4-[2-fluoro-4-(trifluoromethyl)phenyl]-2-methyl-2H,4H-[1,2,3]triazolo[4,5-b]indole-7-carboxylic acid], the IC50 under setting [1] fell in the range of 1 to 10 nM.

Consider `Cn1cc2c3cc(C(=O)N=S4(=O)CC(N)C4)ccc3n(-c3ccc(C(F)(F)F)cc3)c2n1` (stereo not shown) [Example C270, N-(3-amino-1-oxo-1¿6-thietan-1-ylidene)-2-methyl-8-[4-(trifluoromethyl)phenyl]-2H,8H-pyrazolo[3,4-b]indole-5-carboxamide formate], for which, under setting [1], the IC50 was in the range of 10 to 100 nM. Still for that read-out and setting: the result for `C[C@H](NC(=O)c1ccc2c(c1)c1cn(C)nc1n2-c1ccc(C(F)(F)F)cc1)c1ccncc1` [Example C127, 2-methyl-N-[(1S)-1-(pyridin-4-yl)ethyl]-8-[4-(trifluoromethyl)phenyl]-2H,8H-pyrazolo[3,4-b]indole-5-carboxamide] reads 100 to 10000 nM. Under setting [1], `Cc1snc2c1c1cc(C(=O)NCc3nccn3C)ccc1n2-c1ccc(C(F)(F)F)cc1` [Example C79, 3-methyl-N-[(1-methyl-1H-imidazol-2-yl)methyl]-8-[4-(trifluoromethyl)phenyl]-8H-[1,2]thiazolo[3,4-b]indole-5-carboxamide] showed an IC50 of 100 to 10000 nM.

`Cn1cc2c3cc(C(=O)N4CC(CF)C4)ccc3n(-c3ccc(C(F)(F)F)cc3)c2n1` [Example C60, 3-(fluoromethyl)-1-{2-methyl-8-[4-(trifluoromethyl)phenyl]-2H,8H-pyrazolo[3,4-b]indole-5-carbonyl}azetidine] came in with an IC50 under setting [1] of 100 to 10000 nM. Still for that read-out and setting: the result for `Cn1cc2c(n1)c1cc(S(=O)(=O)N3CCC[C@@H]3c3cccnc3)ccc1n2-c1ccc(C(F)(F)F)cc1` [Example C8, 3-[(2R)-1-({2-methyl-4-[4-(trifluoromethyl)phenyl]-2H,4H-pyrazolo[4,3-b]indol-7-yl}sulfonyl)pyrrolidin-2-yl]pyridine] reads greater than 10000 nM. On the same count and under the same terms, the result for `Cn1cc2c3cc(NC(=O)CCN)ccc3n(-c3ccc(C(F)(F)F)cc3)c2n1` [Example C221, 3-amino-N-{2-methyl-8-[4-(trifluoromethyl)phenyl]-2H,8H-pyrazolo[3,4-b]indol-5-yl}propanamide] reads 100 to 10000 nM; that for `Cn1cc2c3cc(C(=O)NC[C@H](O)C(F)(F)F)ccc3n(-c3ccc(C(F)(F)F)cc3)c2n1` [Example C133, 2-methyl-N-[(2S)-3,3,3-trifluoro-2-hydroxypropyl]-8-[4-(trifluoromethyl)phenyl]-2H,8H-pyrazolo[3,4-b]indole-5-carboxamide], 100 to 10000 nM; that for `Cn1cc2c3cc(C(=O)NC4CCNCC4(F)F)ccc3n(-c3ccc(C(F)(F)F)cc3)c2n1` (stereo not shown) [Example C217, N-(3,3-difluoropiperidin-4-yl)-2-methyl-8-[4-(trifluoromethyl)phenyl]-2H,8H-pyrazolo[3,4-b]indole-5-carboxamide], greater than 10000 nM. Consider `Cn1cnc2c1c1cc(C3CC(n4ccnn4)=NO3)ccc1n2-c1ccc(C(F)(F)F)cc1` (stereo not shown) [Example C211, 1-(5-{1-methyl-4-[4-(trifluoromethyl)phenyl]-1H,4H-imidazo[4,5-b]indol-7-yl}-4,5-dihydro-1,2-oxazol-3-yl)-1H-1,2,3-triazole], for which the IC50 under setting [1] lay in the range of 100 to 10000 nM.

Turning to `Cn1nnc2c3cc(S(=O)(=O)O)ccc3n(-c3ccc(C(F)(F)F)cc3)c21` [Example C44, 3-methyl-4-[4-(trifluoromethyl)phenyl]-3H,4H-[1,2,3]triazolo[4,5-b]indole-7-sulfonic acid], the IC50 under setting [2] was greater than 30000 nM. For the molecule `Cn1cc2c3cc(NC(=O)Cc4ccncc4)ccc3n(-c3ccc(C(F)(F)F)cc3)c2n1` [Example C33, N-{2-methyl-8-[4-(trifluoromethyl)phenyl]-2H,8H-pyrazolo[3,4-b]indol-5-yl}-2-(pyridin-4-yl)acetamide], the IC50 under setting [2] is greater than 10000 nM. Take `Cc1snc2c1c1cc(C(=O)N[C@H](CO)C3CCC3)ccc1n2-c1ccc(C(F)(F)F)cc1` [Example C100, N-[(1S)-1-cyclobutyl-2-hydroxyethyl]-3-methyl-8-[4-(trifluoromethyl)phenyl]-8H-[1,2]thiazolo[3,4-b]indole-5-carboxamide]: under setting [1], the IC50 is 100 to 10000 nM. Still for that read-out and setting: the figure for `Cn1cc2c3cc(N(S(C)(=O)=O)S(C)(=O)=O)ccc3n(-c3ccc(C(F)(F)F)cc3)c2n1` [Example C19, N-methanesulfonyl-N-{2-methyl-8-[4-(trifluoromethyl)phenyl]-2H,8H-pyrazolo[3,4-b]indol-5-yl}methanesulfonamide] is 100 to 10000 nM; for `Cn1cc2c3cc(C(=O)N=S4(=O)CC(C#N)C4)ccc3n(-c3ccc(C(F)(F)F)cc3)c2n1` (stereo not shown) [Example C178, N-(3-cyano-1-oxo-1¿6-thietan-1-ylidene)-2-methyl-8-[4-(trifluoromethyl)phenyl]-2H,8H-pyrazolo[3,4-b]indole-5-carboxamide] it is 100 to 10000 nM. Turning to `Cn1cc2c3cc(C(=O)N=S4(=O)CCC5(CCNCC5)C4)ccc3n(-c3ccc(C(F)(F)F)cc3)c2n1` (stereo not shown) [Example C138, 2-methyl-N-{2-oxo-2lambda6-thia-8-azaspiro[4.5]decan-2-ylidene}-8-[4-(trifluoromethyl)phenyl]-2H,8H-pyrazolo[3,4-b]indole-5-carboxamide], the IC50 under setting [1] was 100 to 10000 nM. The same measure, in the same setting: the figure for `Cc1snc2c1c1cc(C(=O)NC3(CO)CCC3)ccc1n2-c1ccc(C(F)(F)F)cc1` [Example C82, N-[1-(hydroxymethyl)cyclobutyl]-3-methyl-8-[4-(trifluoromethyl)phenyl]-8H-[1,2]thiazolo[3,4-b]indole-5-carboxamide] is 100 to 10000 nM.

The values above are taken from patent US20240270748A1 (Merck Patent GmbH, priority 2021, published 2024).
